Experimental data published in patent US20260234157A1, “COMPOUND AND METHOD FOR TARGETED DEGRADATION OF ANDROGEN RECEPTOR” (Gan & Lee Pharmaceuticals Co., Ltd., priority 2023, published 2026).
Positions count from the first letter of the chain named. Read-outs that look alike come from different tables or passages of the source.

What was measured:
Type in all cases: cell-based
AR protein [1] = molecular target: T1, AR protein (Homo sapiens, UniProt P10275, T878A); test: Degradation of AR protein in LNCaP cells (Western blot); settings: for inhibition at 0.01 µM: read-out: Degradation rates of the AR protein in LNCaP cells, 10 nM (%); for inhibition at 0.1 µM: read-out: Degradation rates of the AR protein in LNCaP cells, 100 nM (%)
T1 construct: degradation activity of the compounds disclosed in the present disclosure on AR protein in LNCaP cells; host or cells: LNCaP FGC
T1 sequence (P10275 1-920 T878A): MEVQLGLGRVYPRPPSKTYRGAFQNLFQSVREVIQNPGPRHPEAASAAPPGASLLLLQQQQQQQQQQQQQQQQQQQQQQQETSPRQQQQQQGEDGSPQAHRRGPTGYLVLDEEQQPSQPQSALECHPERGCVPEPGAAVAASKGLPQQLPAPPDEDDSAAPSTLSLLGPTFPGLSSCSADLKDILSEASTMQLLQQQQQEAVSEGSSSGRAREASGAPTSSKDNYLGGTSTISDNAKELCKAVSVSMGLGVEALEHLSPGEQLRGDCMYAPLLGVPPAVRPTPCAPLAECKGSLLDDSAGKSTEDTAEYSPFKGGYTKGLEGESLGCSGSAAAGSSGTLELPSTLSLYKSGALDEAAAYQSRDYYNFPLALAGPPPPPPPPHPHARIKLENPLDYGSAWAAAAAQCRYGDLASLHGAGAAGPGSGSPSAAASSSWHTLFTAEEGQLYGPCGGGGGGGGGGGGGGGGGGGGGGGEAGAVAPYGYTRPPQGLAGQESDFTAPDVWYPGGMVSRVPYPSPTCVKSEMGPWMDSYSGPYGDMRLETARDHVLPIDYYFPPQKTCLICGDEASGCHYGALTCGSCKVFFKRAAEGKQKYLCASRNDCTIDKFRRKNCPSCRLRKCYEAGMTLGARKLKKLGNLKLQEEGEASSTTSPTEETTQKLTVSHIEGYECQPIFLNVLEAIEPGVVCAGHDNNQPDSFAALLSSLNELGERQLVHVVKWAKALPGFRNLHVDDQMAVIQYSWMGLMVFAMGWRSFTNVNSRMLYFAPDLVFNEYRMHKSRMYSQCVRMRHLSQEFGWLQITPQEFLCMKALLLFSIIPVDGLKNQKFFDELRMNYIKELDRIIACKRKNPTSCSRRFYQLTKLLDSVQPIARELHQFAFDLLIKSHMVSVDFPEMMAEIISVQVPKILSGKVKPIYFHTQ
Outline: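 Percent AR degradation was derived from GAPDH-normalised Western blot band intensities (infrared detection) in LNCaP lysates.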

AR protein [2] = molecular target: T2, AR protein (Homo sapiens, UniProt P10275); test: Degradation of AR protein in VCaP cells (Western blot); settings: 8 hours; for inhibition at 0.01 µM: compound at 10 nM, read-out: Degradation rate of the AR protein in VCaP cells, 10 nM (%); for inhibition at 0.1 µM: compound at 100 nM, read-out: Degradation rate of the AR protein in VCaP cells, 100 nM (%)
T2 construct: degradation activity of the compounds disclosed in the present disclosure on AR protein in VCaP cells; host or cells: VCaP
T2 sequence (P10275 1-920): T1 sequence (P10275 1-920 T878A) with A878T
Outline: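 Western blot readout: AR band grayscale normalised to GAPDH, used to derive degradation rate. Lysates came from VCaP cells exposed to compound for 8 h, with solvent controls run in parallel.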

LNCaP FGC cells = test: Inhibition of proliferation of LNCaP cells (WST-8); settings: Homo sapiens, LNCaP, 96 h
Description: The cells were cultured in a cell culture incubator with 5% CO2 at 37° C. overnight. […] On the sixth day, 96 well plates were taken out, and 20 μL of WST-8 (Beytime, C0040) reagent was added to each well.

VCaP cells = test: Inhibition of proliferation of VCaP cells (WST-8); settings: Homo sapiens, read-out: IC50 for inhibiting the proliferation of VCaP cells
Outline: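 Proliferation was read by WST-8 on day nine. Cells were VCaP FGC, seeded at 15000 cells per well in 10% FBS DMEM and kept at 37° C with 5% CO2.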

[3] = read-out: IC50 for inhibiting the proliferation of LNCaP cells, LNCaP FGC cells, 96 hours, WST-8 absorbance at 450 nm
[4] = LNCaP cells, compound 10 nM, 8 hours, Western blot grayscale, GAPDH internal reference
[5] = LNCaP cells, compound 100 nM, 8 hours, Western blot grayscale, GAPDH internal reference
[6] = LNCaP FGC cells, 96 hours, WST-8 absorbance at 450 nm, read-out: IC50 for inhibiting the proliferation of LNCaP cells
[7] = VCaP cells, 168 hours, WST-8 absorbance at 450 nm

| inhibition at 0.01 µM (AR protein [1]; [4]) [%] | inhibition at 0.1 µM (AR protein [1]; [5]) [%] | IC50 (LNCaP FGC cells; [6]) [nM] | IC50 (VCaP cells; [7]) [nM] | SMILES | inhibition at 0.01 µM (AR protein [1]; LNCaP, 8 h) [%] | inhibition at 0.1 µM (AR protein [1]; LNCaP, 8 h) [%] | inhibition at 0.01 µM (AR protein [2]) [%] | inhibition at 0.1 µM (AR protein [2]) [%] | IC50 (LNCaP FGC cells; [3]) [nM] | IC50 (VCaP cells; VCaP, 168 h) [nM] |
| --- | --- | --- | --- | --- | --- | --- | --- | --- | --- | --- |
| – | – | – | – | N#Cc1ccc(O[C@H]2CC[C@H](NC(=O)c3ccc(N4CC(N5CCC6(CCc7ccc8c(c7O6)CN(C6CCC(=O)NC6=O)C8=O)CC5)C4)nn3)CC2)cc1Cl (stereo partly drawn) [Compound 172] | 12 | 33 | -9 | -14 | 91400 | 78800 |
| – | – | – | – | N#Cc1ccc(O[C@H]2CC[C@H](NC(=O)c3ccc(N4CC(N5CCC6(CC5)COc5c(ccc7c5C(=O)N(C5CCC(=O)NC5=O)C7)C6)C4)nn3)CC2)cc1Cl (stereo partly drawn) [Compound 191] | -2 | 4 | 31 | 68 | 15200 | > 90000 |
| 26 | 64 | 390 | 960 | COC1(CN2CCC3(CC2)COc2cc4c(cc2C3)C(=O)N(C2CCC(=O)NC2=O)C4=O)CCN(c2ccc(C(=O)NC3CCC(Oc4ccc(C#N)c(Cl)c4)CC3)nn2)CC1 (stereo not drawn) [Compound 69] | – | – | 50 | 78 | – | – |
| 28 | 25 | 96600 | > 90000 | COC1(CN2CC3(CCc4ccc5c(c4O3)C(=O)N(C3CCC(=O)NC3=O)C5=O)C2)CCN(c2ccc(C(=O)N[C@H]3CC[C@H](Oc4ccc(C#N)c(Cl)c4)CC3)nn2)CC1 (stereo partly drawn) [Compound 165] | – | – | -43 | 23 | – | – |
| 46 | 48 | 39400 | 10 | N#Cc1ccc(O[C@H]2CC[C@H](NC(=O)c3ccc(N4CCC5(CC4)CC(N4CCC6(CCc7ccc8c(c7O6)CN(C6CCC(=O)NC6=O)C8=O)CC4)C5)nn3)CC2)cc1Cl (stereo partly drawn) [Compound 154] | – | – | 75 | 86 | – | – |
| 71 | 84 | 600 | 230 | N#Cc1ccc(O[C@H]2CC[C@H](NC(=O)c3ccc(N4CC[C@H](CN5CCC6(CCc7cc8c(cc7O6)C(=O)N(C6CCC(=O)NC6=O)C8=O)CC5)C4)nn3)CC2)cc1Cl (stereo partly drawn) [Compound 22] | – | – | 58 | 64 | – | – |
| 20 | 56 | 2140 | 4 | COc1cc(O[C@H]2C(C)(C)[C@H](NC(=O)c3ccc(N4CCC(C)(CN5CCC6(CCc7cc8c(cc7O6)CN(C6CCC(=O)NC6=O)C8=O)CC5)CC4)cc3)C2(C)C)ccc1C#N (stereo partly drawn) [Compound 281] | – | – | -11 | 60 | – | – |
| 81 | 92 | 50 | 100 | N#Cc1ccc(O[C@H]2CC[C@H](NC(=O)c3ccc(N4CCC(CN5CCC6(CC5)COc5cc7c(cc5C6)C(=O)N(C5CCC(=O)NC5=O)C7=O)CC4)nn3)CC2)cc1Cl (stereo partly drawn) [Compound 72] | – | – | 75 | 85 | – | – |
| 17 | 50 | 800 | 500 | N#Cc1ccc(O[C@H]2CC[C@H](NC(=O)c3ccc(N4CCC5(CC(N6CCC7(CCc8cc9c(cc8O7)C(=O)N(C7CCC(=O)NC7=O)C9=O)CC6)C5)C4)nn3)CC2)cc1Cl (stereo partly drawn) [Compound 35] | – | – | 47 | 58 | – | – |

| SMILES | inhibition at 0.01 µM (AR protein [1]; [4]) [%] | inhibition at 0.1 µM (AR protein [1]; [5]) [%] | IC50 (LNCaP FGC cells; [6]) [nM] | IC50 (VCaP cells; [7]) [nM] | inhibition at 0.01 µM (AR protein [1]; LNCaP, 8 h) [%] | inhibition at 0.1 µM (AR protein [1]; LNCaP, 8 h) [%] | inhibition at 0.01 µM (AR protein [2]) [%] | inhibition at 0.1 µM (AR protein [2]) [%] | IC50 (LNCaP FGC cells; [3]) [nM] | IC50 (VCaP cells; VCaP, 168 h) [nM] |
| --- | --- | --- | --- | --- | --- | --- | --- | --- | --- | --- |
| N#Cc1ccc(O[C@H]2CC[C@H](NC(=O)c3ccc(N4CCC(C#N)(CN5CCC6(CC5)COc5c6ccc6c5C(=O)N(C5CCC(=O)NC5=O)C6=O)CC4)nn3)CC2)cc1C(F)(F)F (stereo partly drawn) [Compound 228] | 30 | 56 | 2290 | 470 | – | – | -9 | 18 | – | – |
| CCOC1(CN2CCC3(CC2)COc2c3ccc3c2C(=O)N(C2CCC(=O)NC2=O)C3=O)CCN(c2ccc(C(=O)N[C@H]3CC[C@H](Oc4ccc(C#N)c(Cl)c4)CC3)nn2)CC1 (stereo partly drawn) [Compound 244] | -5 | 65 | 170 | 68 | – | – | 3 | 56 | – | – |
| CCOC1(CN2CCC3(CC2)COc2c3ccc3c2C(=O)N(C2CCC(=O)NC2=O)C3=O)CCN(c2ccc(C(=O)N[C@H]3C(C)(C)[C@H](Oc4ccc(C#N)c(OC)c4)C3(C)C)cc2)CC1 (stereo partly drawn) [Compound 295] | 1 | 44 | 370 | 20 | – | – | -4 | 37 | – | – |
| CCC1(CN2CCC3(CC2)COc2c3ccc3c2CN(C2CCC(=O)NC2=O)C3=O)CCN(c2ccc(C(=O)N[C@H]3C(C)(C)[C@H](Oc4ccc(C#N)c(OC)c4)C3(C)C)cc2)CC1 (stereo partly drawn) [Compound 294] | 54 | 57 | 77 | 2 | – | – | 13 | 62 | – | – |
| CCC1(CN2CCC3(CC2)COc2c3ccc3c2C(=O)N(C2CCC(=O)NC2=O)C3=O)CCN(c2ccc(C(=O)N[C@H]3CC[C@H](Oc4ccc(C#N)c(Cl)c4)CC3)nn2)CC1 (stereo partly drawn) [Compound 249] | -5 | 51 | 12100 | 220 | – | – | -21 | 56 | – | – |
| CCC1(CN2CCC3(CC2)COc2c3ccc3c2C(=O)N(C2CCC(=O)NC2=O)C3=O)CCN(c2ccc(C(=O)N[C@H]3CC[C@H](Oc4ccc(C#N)c(C(F)(F)F)c4)CC3)nn2)CC1 (stereo partly drawn) [Compound 248] | -53 | -16 | 5990 | 210 | – | – | 2 | 17 | – | – |
